# Experimental data reported in ChEMBL document CHEMBL1123970, “Ab initio molecular electrostatic potentials of perillartine analogues: implications for sweet-taste receptor recognition” (J Med Chem, 1988).
# Experiment: Compound was tasted for its sweet potency, expressed with relative to sucrose
row,Sweetness potency,Structure (SMILES)
1,500,CC1=CCC(/C=N/O)=CC1
2,90,O/N=C/C1=CC=CCC1
3,40,C/C=C(C)/C=N/O
4,200,O/N=C/C1=CCC=CC1
5,225,COCC1=CCC(/C=N/O)=CC1
6,140,C/C=C(C)/C(C)=N/O
7,55,O/N=C/C1=CCCCC1
8,55,O/N=C/C1=CCCC1
